Where two headings read alike, the source gives them in different places.
What was measured:
[1] = GC-head space: effect of enablers on the encapsulation of menthol by PVP; assay type: physicochemical; settings: for ability of enabler to encapsulate menthol: GC-Head space against control; for ability of enabler to encapsulate menthol / GC-HS area Menthol: with PVP; for GC-HS area (% of control sample): menthol, control without PVP
[2] = GC-head space: effect of enablers on the encapsulation of menthol and limonene combination by PVP; assay type: physicochemical; settings: for GC-HS area (% of control sample) Limonene / GC-HS area (% of control sample) Menthol / GC-HS area Limonene / GC-HS area Menthol: menthol + limonene with PVP
[3] = UV-vis spectroscopy of enabler interaction with PVP (absorbance at 236 nm); assay type: physicochemical
[4] = cited from earlier work
[5] = GC head space of benefit agents in the presence of PVP and BHT; assay type: physicochemical

| Compound | GC-HS area Menthol ([1]; enabler concentration 0.05%) | GC-HS area Menthol ([1]; enabler concentration 0.1%) | GC-HS area (% of control sample) ([1]; enabler 0.05%) | GC-HS area (% of control sample) ([1]; enabler 0.1%) | GC-HS area (% of control sample) Limonene ([2]; enabler 0.05%) | GC-HS area (% of control sample) Menthol ([2]; enabler 0.05%) | GC-HS area Limonene ([2]; enabler 0.05%) | GC-HS area Menthol ([2]; enabler 0.05%) | GC-HS area (% of control sample) Limonene ([2]; enabler 0.1%) | GC-HS area (% of control sample) Menthol ([2]; enabler 0.1%) | GC-HS area Limonene ([2]; enabler 0.1%) | GC-HS area Menthol ([2]; enabler 0.1%) | GC-HS area (% of control sample) Limonene ([2]; enabler 0.5%) | GC-HS area (% of control sample) Menthol ([2]; enabler 0.5%) | GC-HS area Limonene ([2]; enabler 0.5%) | GC-HS area Menthol ([2]; enabler 0.5%) | LogP value [4] | further results |
| --- | --- | --- | --- | --- | --- | --- | --- | --- | --- | --- | --- | --- | --- | --- | --- | --- | --- | --- |
| CC(=O)O [Acetic acid] | 708 | 1030 | 0.94 % of control sample | 1.37 % of control sample | 91.77 % of control sample | 0.50 % of control sample | 1860568 | 105 | 112.66 % of control sample | 0.82 % of control sample | 2096101 | 174 | 97.95 % of control sample | 1.89 % of control sample | 2053175 | 399 | – | ability of enabler to encapsulate menthol [1]: effectively encapsulate menthol; GC-HS area Menthol ([1]; enabler concentration 0.5%): 925; GC-HS area (% of control sample) ([1]; enabler 0.5%): 1.23 % of control sample |
| CC(C)=O [Acetone] | 541 | 179 | 0.72 % of control sample | 0.24 % of control sample | 88.91 % of control sample | 1.04 % of control sample | 1825472 | 220 | 103.37 % of control sample | 1.74 % of control sample | 1886916 | 369 | 106.24 % of control sample | 4.21 % of control sample | 2004605 | 891 | – | ability of enabler to encapsulate menthol [1]: effectively encapsulate menthol; GC-HS area Menthol ([1]; enabler concentration 0.5%): 199; GC-HS area (% of control sample) ([1]; enabler 0.5%): 0.27 % of control sample |
| Cc1cc(C(C)(C)C)c(O)c(C(C)(C)C)c1 [BHT, Butylated hydroxy toluene] | 10608 | 10773 | 14.14 % of control sample | 14.36 % of control sample | 108.95 % of control sample | 23.30 % of control sample | 1813235 | 4929 | 102.91 % of control sample | 30.48 % of control sample | 1866057 | 6449 | 108.30 % of control sample | 58.28 % of control sample | 2020945 | 12330 | – | Absorbance ([3]; 236 nm, enabler 10 ppm with PVP in 95% v/v ethanol): 0.155; interaction of enabler with PVP ([3]; UV-vis, 10 ppm): comparatively lower activities; GC-HS area Menthol ([1]; enabler concentration 0.5%): 8798; GC-HS area (% of control sample) ([1]; enabler 0.5%): 11.73 % of control sample |
| CCCCCCCCCCCCCCCCO [Cetyl alcohol, reference compound] | – | – | – | – | – | – | – | – | – | – | – | – | – | – | – | – | 7.25 | interaction of the enabler with the polymer ([3]; UV-vis, concentration not given): No interaction |
| CCCCCCCCCCCCN [Dodecyl amine] | – | – | – | – | – | – | – | – | – | – | – | – | – | – | – | – | 4.76 | – |
| CC1CCC(C(C)C)C(O)C1 (stereo not shown) [Menthol] | – | – | – | – | – | – | – | – | – | – | – | – | – | – | – | – | – | selectivity of encapsulation in menthol and limonene combination ([2]; PVP with enablers): preferentially encapsulated as against limonene |
| CCCCC(CC)COC(=O)C=Cc1ccc(OC)cc1 (stereo not shown) [Octyl methoxy cinnamate] | – | – | – | – | – | – | – | – | – | – | – | – | – | – | – | – | 5.8 | – |
| Oc1cc(Cl)ccc1Oc1ccc(Cl)cc1Cl [Triclosan] | 4977 | 3482 | 6.63 % of control sample | 4.64 % of control sample | 95.29 % of control sample | 3.59 % of control sample | 1925700 | 759 | 99.50 % of control sample | 1.30 % of control sample | 1916012 | 274 | 105.82 % of control sample | 3.98 % of control sample | 2027488 | 841 | – | Absorbance [3]: 0.961; interaction of enabler with PVP [3]: stronger interaction with PVP; ability of enabler to encapsulate menthol [1]: effectively encapsulate menthol; GC-HS area Menthol ([1]; enabler concentration 0.3%): 6103; GC-HS area (% of control sample) ([1]; enabler 0.3%): 8.14 % of control sample |
| CCCCCCCCCCN [decyl amine] | – | – | – | – | – | – | – | – | – | – | – | – | – | – | – | – | 1.92 | – |
| CCCCCCCCCCCC(=O)OC [methyl laurate] | – | – | – | – | – | – | – | – | – | – | – | – | – | – | – | – | 5.41 | – |
| CC1=CCC2CC1C2(C)C (stereo not drawn) [α-Pinene] | – | – | – | – | – | – | – | – | – | – | – | – | – | – | – | – | 4.83 | encapsulation by PVP in the presence of BHT as enabler [5]: not encapsulated |

— patent US12685983B2, “Benefit agent delivery system” (ITC Limited, priority 2020, dated 2026)
